The structures appear in SMILES notation.

Common to all, as to assay: microbe, parasite or virus in culture
Holding throughout (type): cell-based

Test [1] has as its system HCV 2a JFH-1 Rluc cells (dicistronic genotype 2a JFH-1 replicon, RLuc reporter). The note with it: Hepatitis C virus, 72 h, Table 2; genotype 2a JFH-1 replicon, 72 hours; read-out: 2a JFH. A digest of the protocol: (§1)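 Replicons used: genotype 1b Con1, 1a H77, 2a JFH-1, and a 2a JFH-1 chimera with J6-strain NS5A (M31 present), all dicistronic.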
A general note: A replicon is a self-replicating genome or part of one, used to study replication in cells.

Test [2] deals with HCV 1a RLuc cells (dicistronic genotype 1a H77 replicon, RLuc reporter). The note with it: Hepatitis C virus, 72 h, Table 2; genotype 1a H77 replicon, 72 hours; read-out: 1a. A digest of the protocol:
as §1

Test [3] concerns HCV 3a RLuc cells (NS5A chimeric genotype 1b Con1 replicon with consensus genotype 3a NS5A gene). Conditions: Hepatitis C virus, read-out: 3a, Table 2; genotype 3a NS5A chimeric replicon. An outline of the steps: (§2)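 Replicon cells stably carrying the listed RLuc-encoding dicistronic replicons were seeded and treated with DMSO serial dilutions of compound (10 mM stocks) diluted into culture medium. After 72 h, cells were lysed and Renilla luciferase activity measured. EC50 was derived by non-linear regression.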

Test [4] has as its system HCV 1b RLuc cells (dicistronic genotype 1b Con1 replicon, RLuc reporter). The note with it: Hepatitis C virus, 72 h, read-out: 1b (nM). A digest of the protocol: as §1
Test [5] relates to HCV 4a Rluc cells (NS5A chimeric genotype 1b Con1 replicon with genotype 4a NS5A gene). The note with it: Hepatitis C virus, read-out: 4a. A digest of the protocol:
as §2

With `COC(=O)N[C@H](C(=O)N1CC2(C[C@H]1c1ncc(-c3ccc4cc(-c5ccc(-c6cnc([C@@H]7CCCN7C(=O)[C@H](NC(=O)OC)c7ccccc7)[nH]6)cc5)ccc4c3)[nH]1)OCCO2)C1CCOCC1` [Example 44], the EC50 in test [1] is 0.001 to 0.999 nM; in test [2], 0.001 to 0.999 nM; in test [3], 1 to 4.99 nM; in test [4], 0.032 nM; in test [5] it was 0.001 to 0.99 nM.
In the case of `COC(=O)N[C@H](C(=O)N1CCC[C@H]1c1ncc(-c2ccc3cc(-c4ccc(-c5cnc([C@@H]6CC7(CN6C(=O)[C@H](NC(=O)OC)c6ccccc6)OCCO7)[nH]5)cc4)ccc3c2)[nH]1)C(C)C` [Example 45], the EC50 in test [1] was 0.001 to 0.999 nM; in test [2], 0.001 to 0.999 nM; in test [3] it was 1 to 4.99 nM; in test [4], 0.014 nM; in test [5] it was 0.001 to 0.99 nM.
Consider `COC(=O)N[C@H](C(=O)N1CC2(C[C@@H]1c1nc(-c3ccc4c(c3)C(F)(F)c3cc(-c5ccc6nc([C@@H]7CCCN7C(=O)[C@H](NC(=O)OC)c7ccccc7)[nH]c6c5)ccc3-4)c[nH]1)OCCO2)C(C)C` [Example 46], for which the EC50 in test [1] is 0.001 to 0.999 nM; in test [2], 0.001 to 0.999 nM; in test [3], 1 to 4.99 nM; in test [4] it was 0.007 nM; in test [5], 0.001 to 0.99 nM.
For the molecule `COC(=O)N[C@H](C(=O)N1CCC[C@H]1c1ncc(-c2ccc3cc(-c4ccc(-c5cnc([C@@H]6CC7(CN6C(=O)[C@H](NC(=O)OC)c6ccccc6)OCCO7)[nH]5)cc4)ccc3c2)[nH]1)C1CCOCC1` [Example 47], the EC50 is 0.001 to 0.999 nM in test [1]; 0.001 to 0.999 nM in test [2]; 1 to 4.99 nM in test [3]; 0.037 nM in test [4]; 0.001 to 0.99 nM in test [5].
Consider `COC(=O)N[C@H](C(=O)N1CCC[C@H]1c1ncc(-c2ccc3cc(-c4ccc(-c5cnc([C@@H]6[C@H]7CC[C@H](C7)N6C(=O)[C@H](NC(=O)OC)c6ccccc6)[nH]5)cc4)ccc3c2)[nH]1)C(C)C` [Example 48], for which the EC50 in test [1] is 1 to 44 nM; in test [2], 0.001 to 0.999 nM; in test [3], 1 to 4.99 nM; in test [4] it was 0.007 nM; in test [5] it was 0.001 to 0.99 nM.
Regarding `COC(=O)N[C@H](C(=O)N1CCC[C@H]1c1ncc(-c2ccc3cc(-c4ccc(-c5cnc([C@@H]6[C@H]7CC[C@H](C7)N6C(=O)[C@H](NC(=O)OC)c6ccccc6)[nH]5)cc4)ccc3c2)[nH]1)C1CCOCC1` [Example 49], the EC50 in test [1] is 0.001 to 0.999 nM; in test [2], 0.001 to 0.999 nM; in test [3], 0.001 to 0.99 nM; in test [4], 0.014 nM; in test [5], 0.001 to 0.99 nM.
In the case of `COC(=O)N[C@H](C(=O)N1CC2(C[C@H]1c1ncc(-c3ccc(-c4ccc5cc(-c6cnc([C@@H]7CCCN7C(=O)[C@H](NC(=O)OC)c7ccccc7)[nH]6)ccc5c4)cc3)[nH]1)OCCO2)C1CCOCC1` [Example 50], the EC50 in test [1] is 0.001 to 0.999 nM; in test [2], 0.001 to 0.999 nM; in test [3], 0.001 to 0.99 nM; in test [4] it was 0.031 nM; in test [5], 0.001 to 0.99 nM.
As for `COC(=O)N[C@H](C(=O)N1CCC[C@H]1c1ncc(-c2ccc3cc(-c4ccc(-c5cnc([C@@H]6[C@@H]7CC[C@@H](C7)N6C(=O)[C@H](NC(=O)OC)c6ccccc6)[nH]5)cc4)ccc3c2)[nH]1)C(C)C` [Example 51], the EC50 was 1 to 44 nM in test [1]; 1 to 44 nM in test [2]; 1 to 4.99 nM in test [3]; 0.012 nM in test [4]; 0.001 to 0.99 nM in test [5].
Regarding `COC(=O)N[C@H](C(=O)N1CCC[C@H]1c1ncc(-c2ccc3cc(-c4ccc(-c5cnc([C@@H]6[C@@H]7CC[C@@H](C7)N6C(=O)[C@@H](NC(=O)OC)C(C)C)[nH]5)cc4)ccc3c2)[nH]1)C(C)C` [Example 52], the EC50 in test [1] was 1 to 44 nM; in test [2], 0.001 to 0.999 nM; in test [3], 1 to 4.99 nM; in test [4], 0.009 nM; in test [5] it was 0.001 to 0.99 nM.
Take `COC(=O)N[C@H](C(=O)N1CCC[C@H]1c1ncc(-c2ccc3c(c2)C(F)(F)c2cc(-c4ccc5nc([C@@H]6[C@H]7CC[C@H](C7)N6C(=O)[C@H](NC(=O)OC)c6ccccc6)[nH]c5c4)ccc2-3)[nH]1)C1CCOCC1` [Example 56]: the EC50 in test [1] is 0.001 to 0.999 nM; in test [2], 0.001 to 0.999 nM; in test [3] it was 0.001 to 0.99 nM; in test [4], 0.01 nM; in test [5] it was 0.001 to 0.99 nM.
Regarding `COC(=O)N[C@H](C(=O)N1[C@@H]2CC[C@@H](C2)[C@H]1c1nc2ccc(-c3ccc4c(c3)C(F)(F)c3cc(-c5cnc([C@@H]6CCCN6C(=O)[C@H](NC(=O)OC)c6ccccc6)[nH]5)ccc3-4)cc2[nH]1)C1CCOCC1` [Example 57], the EC50 in test [1] was 0.001 to 0.999 nM; in test [2], 0.001 to 0.999 nM; in test [3], 0.001 to 0.99 nM; in test [4] it was 0.009 nM; in test [5], 0.001 to 0.99 nM.
`COC(=O)N[C@H](C(=O)N1CCC[C@H]1c1ncc(-c2ccc3c(c2)C(F)(F)c2cc(-c4ccc5nc([C@@H]6CC7(CN6C(=O)[C@H](NC(=O)OC)c6ccccc6)OCCO7)[nH]c5c4)ccc2-3)[nH]1)C1CCOCC1` [Example 58]: the EC50 in test [1] is 0.001 to 0.999 nM; in test [2], 0.001 to 0.999 nM; in test [3], 1 to 4.99 nM; in test [4] it was 0.017 nM; in test [5], 0.001 to 0.99 nM.
In the case of `COC(=O)N[C@H](C(=O)N1CC2(C[C@H]1c1nc3ccc(-c4ccc5c(c4)C(F)(F)c4cc(-c6cnc([C@@H]7CCCN7C(=O)[C@H](NC(=O)OC)c7ccccc7)[nH]6)ccc4-5)cc3[nH]1)OCCO2)C1CCOCC1` [Example 59], the EC50 in test [1] is 0.001 to 0.999 nM; in test [2] it was 0.001 to 0.999 nM; in test [3], 0.001 to 0.99 nM; in test [4], 0.016 nM; in test [5], 0.001 to 0.99 nM.
For `COC(=O)N[C@H](C(=O)N1CCC[C@H]1c1ncc(-c2ccc(-c3ccc(-c4cnc([C@@H]5CCCN5C(=O)[C@H](NC(=O)OC)c5ccccc5)[nH]4)cc3)cc2)[nH]1)C(C)C` [Example 60], the EC50 is 0.001 to 0.999 nM in test [1]; 1 to 44 nM in test [2]; 0.001 to 0.99 nM in test [3]; 0.02 nM in test [4]; 0.001 to 0.99 nM in test [5].
Regarding `COC(=O)N[C@H](C(=O)N1CCC[C@H]1c1ncc(-c2ccc(-c3ccc(-c4cnc([C@@H]5[C@H]6CC[C@H](C6)N5C(=O)[C@@H](NC(=O)OC)C5CCOCC5)[nH]4)cc3)cc2)[nH]1)C(C)C` [Example 61], the EC50 is 0.001 to 0.999 nM in test [1]; 0.001 to 0.999 nM in test [2]; 1 to 4.99 nM in test [3]; 0.087 nM in test [4]; 0.001 to 0.99 nM in test [5].
`COC(=O)N[C@H](C(=O)N1CCC[C@H]1c1nc2ccc3cc(-c4ccc(-c5cnc([C@@H]6[C@H]7CC[C@H](C7)N6C(=O)[C@@H](NC(=O)OC)C6CCOCC6)[nH]5)cc4)ccc3c2[nH]1)C(C)C` [Example 62]: the EC50 is 0.001 to 0.999 nM in test [1]; 0.001 to 0.999 nM in test [2]; 0.001 to 0.99 nM in test [3]; 0.034 nM in test [4]; 0.001 to 0.99 nM in test [5].
`COC(=O)N[C@H](C(=O)N1CCC[C@H]1c1nc2ccc3cc(-c4ccc5c(ccc6nc([C@@H]7[C@H]8CC[C@H](C8)N7C(=O)[C@@H](NC(=O)OC)[C@@H](C)OC)[nH]c65)c4)ccc3c2[nH]1)C(C)C` [Example 64]: the EC50 in test [1] is 0.001 to 0.999 nM; in test [2] it was 0.001 to 0.999 nM; in test [3] it was 0.001 to 0.99 nM; in test [4] it was 0.018 nM; in test [5] it was 0.001 to 0.99 nM.
With `COC(=O)NC(C(=O)N1CCC[C@H]1c1ncc(-c2ccc(-c3ccc4c(ccc5nc([C@@H]6[C@H]7CC[C@H](C7)N6C(=O)[C@@H](NC(=O)OC)C6CCOCC6)[nH]c54)c3)cc2)[nH]1)C(C)C` (stereo partly drawn) [Example 67], the EC50 in test [1] was 0.001 to 0.999 nM; in test [2] it was 0.001 to 0.999 nM; in test [3], 1 to 4.99 nM; in test [4], 0.044 nM; in test [5] it was 0.001 to 0.99 nM.
In the case of `COC(=O)NC(C(=O)N1CCC[C@H]1c1ncc(-c2ccc(-c3ccc4c(ccc5nc([C@@H]6[C@H]7CC[C@H](C7)N6C(=O)[C@@H](NC(=O)OC)C(C)C)[nH]c54)c3)cc2)[nH]1)C1CCOCC1` (stereo partly drawn) [Example 69], the EC50 in test [1] is 0.001 to 0.999 nM; in test [2], 0.001 to 0.999 nM; in test [3] it was 0.001 to 0.99 nM; in test [4] it was 0.035 nM; in test [5], 0.001 to 0.99 nM.
As for `COC(=O)NC(C(=O)N1CCC[C@H]1c1nc2ccc3cc(-c4ccc5cc(-c6cnc([C@@H]7[C@H]8CC[C@H](C8)N7C(=O)[C@H](NC(=O)OC)c7ccccc7)[nH]6)ccc5c4)ccc3c2[nH]1)[C@@H](C)OC` (stereo partly drawn) [Example 70], the EC50 in test [1] was 1 to 44 nM; in test [2], 0.001 to 0.999 nM; in test [3], 1 to 4.99 nM; in test [4] it was 0.008 nM; in test [5], 0.001 to 0.99 nM.
Take `COC(=O)N[C@H](C(=O)N1[C@@H]2CC[C@@H](C2)[C@H]1c1ncc(-c2ccc(-c3ccc4cc(-c5cnc([C@@H]6CCCN6C(=O)[C@H](NC(=O)OC)c6ccccc6)[nH]5)ccc4c3)cc2)[nH]1)C1CCOCC1` [Example 71]: the EC50 was 0.001 to 0.999 nM in test [1]; 0.001 to 0.999 nM in test [2]; 0.001 to 0.99 nM in test [3]; 0.013 nM in test [4]; 0.001 to 0.99 nM in test [5].

The values are drawn from patent US10344019B2 (priority 2010, dated 2019).
